From PMC9926234, “Iterative computational design and crystallographic screening identifies potent inhibitors targeting the Nsp3 macrodomain of SARS-CoV-2” (Proceedings of the National Academy of Sciences of the …, 2023)
Values joined by “and” are separate entries in the source; they are usually repeats but may differ in a detail not shown here. Identical values can stand only once. Like-named read-outs stand apart in the source and are kept apart here.

Assays:
MacroD2 = target: T1, MacroD2 (Homo sapiens, UniProt A1Z1Q3); assay: adapted HTRF-based peptide displacement assay (off-target); assay type: binding; conditions: for binding / activity against MacroD2: compound at 160 µM
T1 construct: MacroD2_HTRF; HTRF assay; pET22b(+); His6, TEV, Avi; made in house
T1 sequence (A1Z1Q3 with tags, fused parts or gaps): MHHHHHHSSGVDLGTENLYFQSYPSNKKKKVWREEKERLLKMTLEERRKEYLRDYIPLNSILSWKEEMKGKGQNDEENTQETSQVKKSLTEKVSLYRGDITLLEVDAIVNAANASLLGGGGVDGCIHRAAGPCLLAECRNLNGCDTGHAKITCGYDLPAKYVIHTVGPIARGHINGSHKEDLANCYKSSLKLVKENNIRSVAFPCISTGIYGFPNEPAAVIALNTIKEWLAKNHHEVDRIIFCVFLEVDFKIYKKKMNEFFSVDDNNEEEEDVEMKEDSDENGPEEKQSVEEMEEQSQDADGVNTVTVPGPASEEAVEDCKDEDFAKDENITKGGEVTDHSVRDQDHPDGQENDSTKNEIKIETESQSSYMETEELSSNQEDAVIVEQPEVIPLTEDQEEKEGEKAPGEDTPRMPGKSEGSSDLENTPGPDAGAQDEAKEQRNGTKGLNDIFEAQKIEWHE

TARG1 = target: T2, TARG1 (Homo sapiens, UniProt Q9Y530); assay: as above; assay type: binding; conditions: for binding / activity against TARG1: compound at 160 µM
T2 construct: Targ1_HTRF; HTRF assay; pET22b(+); His6, TEV; 1-153; made in house
T2 sequence (Q9Y530 with tags, fused parts or gaps): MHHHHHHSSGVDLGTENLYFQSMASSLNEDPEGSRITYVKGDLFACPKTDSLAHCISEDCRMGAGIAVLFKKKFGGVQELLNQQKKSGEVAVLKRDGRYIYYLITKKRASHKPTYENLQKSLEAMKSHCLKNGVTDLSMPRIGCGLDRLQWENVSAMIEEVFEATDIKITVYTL

SARS-CoV-2 NSP3 Mac1 [1] = target: T3, SARS-CoV-2 NSP3 Mac1 (Severe acute respiratory syndrome coronavirus 2, UniProt P0DTD1); assay type: binding; conditions: for 1-BDC / 1-BDC (PanDDA): PanDDA event map; for Refined occupancy: ligand occupancy after refinement (phenix.refine)
SARS-CoV-2 NSP3 Mac1 [2] = target: T3, SARS-CoV-2 NSP3 Mac1; assay: biochemical; assay type: binding
SARS-CoV-2 NSP3 Mac1 [3] = target: T3, SARS-CoV-2 NSP3 Mac1; assay type: binding; parameters: contains a conserved macrodomain enzyme (Mac1)
Procedure, shortened: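 Differential scanning fluorimetry using 5 µM Fluorescent Yellow dye in place of SYPRO Orange. Compounds run in triplicate at seven two-fold dilutions from 1,000 or 100 μM, with ΔTma taken against a DMSO control in the same plate region. Dose-response significance assessed by Spearman's coefficient between concentration and ΔTma.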

SARS-CoV-2 NSP3 Mac1 [4] = assay: Overall hit call (binding in crystallographic soaking or the HTRF-based binding assay)
Source text: Supplement pnas.2212931120.sd01.xlsx, sheet "Compound Summary" | column: HIT*

[5] = tested on: P-glycoprotein (human MDR1); assay: in vitro; conditions: dog, MDCK-MDR1, pH 7.4, permeability, MDR1-MDCKII
Description: Permeability of compounds was assessed using canine MDR1 knockout and human MDR1 knockin MDCKII cells (MDR1-MDCKII) (Sigma-Aldrich, MTOX1303) in confluent monolayers expressing P-glycoprotein (P-gp) at Enamine biological services Bienta LTD (Kyiv, Ukraine).
Canine MDR1 knockout, human MDR1 knockin MDCKII cell (MDR1-MDCKII) (Sigma-Aldrich,
MTOX1303) suspension (400 μl) was added to each well of high throughput screening multiwell
insert system plates. Test compounds were prepared as 20 mM DMSO stocks. The test compound
(300 µl) was dissolved in transport buffer (9.5 g/l Hanks’ balanced salt solution and 0.35 g/l NaHCO3
wells whereas 1000 µl of transport buffer was added to transport analysis plate wells in order to
determine apical (A) to basolateral (B) transport. Basolateral to apical transport was measured by
adding 1000 µl of the test compound solution into the transport analysis plate wells whereas 300
µl of buffer was used to fill the filter plate wells.
were taken from the donor and receiver compartments for LC-MS/MS analysis. Samples were
mixed with acetonitrile followed by protein sedimentation by centrifugation at 1000 rpm for 10 min.
HPLC coupled with tandem mass spectroscopy was performed using the Shimadzu Prominence
HPLC system coupled with the API 5000 (PE Sciex) spectrometer. Both the positive and negative
ion modes of the TurboIonSpray ion source were used. The apparent permeability (Papp) was
computed using the equation 1, where VA is the volume of transport buffer in acceptor wel, Area is
the surface area of the insert, Time is the assay time, [drug]acc is the peak area of test compound
in acceptor well, and [drug]initial,d is the initial amount of the test compound in a donor well.

SARS-CoV-2 NSP3 Mac1 [6] = target: T3, SARS-CoV-2 NSP3 Mac1; parameters: contains a conserved macrodomain enzyme (Mac1); differential scanning fluorimetry, maximum thermal upshift; conditions: binder
[7] = 1 minus background density correction, crystal soaking of Mac1
[8] = HTRF ADPr-peptide displacement from SARS-CoV-2 Mac1, read-out: IC50
[9] = crystal soak, Compound_concentration 100 mM, Echo_dispense_volume 40 nl
[10] = crystal soak, Compound_concentration 100 mM, Echo_dispense_volume 40 nl, PanDDA run (background map) dmso_34, nohits_35 or nohits_62

`O=C(O)CC1CN(c2ncnc3[nH]c4cc(F)ccc4c23)CCO1` (stereo not shown) [LL1_0014] was tested, and the “displacement of the ADPr-conjugated peptide (off-target activity)” value (“displacement” for short) (MacroD2; compound at 1 mM) was 50%, the “displacement” value (TARG1; compound at 1 mM) was 50% and the 1-BDC (SARS-CoV-2 NSP3 Mac1 [1]; [7]) was 0.11. For the same compound, the “Modeled?” value (SARS-CoV-2 NSP3 Mac1 [1]; ligand modeled from this dataset, compound concentration 100 mM, Echo dispense volume 40 or 80 nl) was “TRUE”, the Refined occupancy (SARS-CoV-2 NSP3 Mac1 [1]; crystal soaking of Mac1) was 22 and the “HIT*” value (SARS-CoV-2 NSP3 Mac1 [1]; true hit = binding in crystallographic soaking or the HTRF-based binding assay) was “Y”. For the same compound, the IC50 (SARS-CoV-2 NSP3 Mac1 [2]; [8]) was 16 to 29 µM and 16.4 to 28.7 µM, the IC50 (SARS-CoV-2 NSP3 Mac1 [2]; HTRF, read-out: IC50) was 16.4 µM and 28.7 µM and the Ki (SARS-CoV-2 NSP3 Mac1 [2]; Ki estimation from HTRF-derived IC50, Cheng-Prusoff, peptide 400nM, Kd 2.68µM, read-out: Ki***) was 14.3 µM and 25 µM. The “Spearman est (compound concentration vs apparent Tm)” value (SARS-CoV-2 NSP3 Mac1 [3]; DSF dose responsiveness, 1 µM nsp3 mac1, adj p given) was 0.91 and the “DSF max dTma” value (SARS-CoV-2 NSP3 Mac1 [3]; maximal thermal upshift) was 3.21 ˚C.

For `Fc1ccc2c(c1)[nH]c1ncnc(N3CCOC(c4nnn[nH]4)C3)c12` (stereo not shown) [LL114_0008], the “displacement” value (MacroD2; compound at 50 µM) was “showed measurable peptide displacement”, the “displacement” value (TARG1; compound at 50 µM) was “showed measurable peptide displacement” and the “1-BDC (PanDDA)” value (SARS-CoV-2 NSP3 Mac1 [1]; [7]) was 0.25. The 1-BDC (SARS-CoV-2 NSP3 Mac1 [1]; [9]) was 0.25, the “PanDDA hit?” value (SARS-CoV-2 NSP3 Mac1 [1]; [10]) was “TRUE” and the “Modeled?” value (SARS-CoV-2 NSP3 Mac1 [1]; ligand modeled, crystal soak, Compound_concentration 100 mM, Echo_dispense_volume 40 nl) was “TRUE”. For the same compound, the Refined occupancy (SARS-CoV-2 NSP3 Mac1 [1]; crystal soaking of Mac1) was 50, the IC50 (SARS-CoV-2 NSP3 Mac1 [2]; HTRF ADPr-conjugated peptide displacement, read-out: IC50) was 17.2 µM and the IC50 (SARS-CoV-2 NSP3 Mac1 [2]; [8]) was 17 µM. For the same compound, the Ki (SARS-CoV-2 NSP3 Mac1 [2]; read-out: Ki***) was 15 µM and the “HIT*” value (SARS-CoV-2 NSP3 Mac1 [4]) was “Y”.

`O=C1CCCN1Nc1ncnc2[nH]c3cc(F)ccc3c12` [LRH-0003] was tested, and the “binding / activity against MacroD2” value (MacroD2) was “neither neutral compounds LRH-0003 and LRH-0008 had measurable binding”, the “binding / activity against TARG1” value (TARG1) was “neither neutral compounds LRH-0003 and LRH-0008 had measurable binding” and the Papp ([5]; apical to basal) was 13.8 ×10⁻⁶ cm/s. The Papp ([5]; basal to apical) was 24.3 ×10⁻⁶ cm/s.

`O=C1CCCC1Nc1ncnc2[nH]c3cc(F)ccc3c12` (stereo not shown) [LRH-0008] was tested, and the “binding / activity against MacroD2” value (MacroD2) was “neither neutral compounds LRH-0003 and LRH-0008 had measurable binding”, the “binding / activity against TARG1” value (TARG1) was “neither neutral compounds LRH-0003 and LRH-0008 had measurable binding” and the IC50 (SARS-CoV-2 NSP3 Mac1 [2]; [8]) was 13.4 µM. For the same compound, the Ki (SARS-CoV-2 NSP3 Mac1 [2]; read-out: Ki***) was 11.7 µM and the “HIT*” value (SARS-CoV-2 NSP3 Mac1 [4]) was “Y”.

For `O=C(O)[C@H]1CCCC[C@H]1Nc1ncnc2[nH]c3cc(F)ccc3c12` [LRH-0021], the “binding / activity against TARG1” value (TARG1) was “showed binding”, the Papp ([5]; apical to basal) was 12 ×10⁻⁶ cm/s and the Papp ([5]; basal to apical) was 9.1 ×10⁻⁶ cm/s. The “1-BDC (PanDDA)” value (SARS-CoV-2 NSP3 Mac1 [1]; [7]) was 0.12, the 1-BDC (SARS-CoV-2 NSP3 Mac1 [1]; [9]) was 0.05 and the 1-BDC (SARS-CoV-2 NSP3 Mac1 [1]; crystal soak, Compound_concentration 100 mM, Echo_dispense_volume 80 nl) was 0.12. For the same compound, the “PanDDA hit?” value (SARS-CoV-2 NSP3 Mac1 [1]; [10]) was “TRUE”, the “PanDDA hit?” value (SARS-CoV-2 NSP3 Mac1 [1]; crystal soak, Compound_concentration 100 mM, Echo_dispense_volume 80 nl, PanDDA run dmso_34) was “TRUE” and the “Modeled?” value (SARS-CoV-2 NSP3 Mac1 [1]; ligand modeled, crystal soak, Compound_concentration 100 mM, Echo_dispense_volume 80 nl) was “TRUE”. The Refined occupancy (SARS-CoV-2 NSP3 Mac1 [1]; crystal soaking of Mac1) was 24, the “binding to Mac1 in the HTRF assay, result in words” value (SARS-CoV-2 NSP3 Mac1 [2]) was “equipotent to LRH-0003” and the IC50 (SARS-CoV-2 NSP3 Mac1 [2]; IC50 [µM], HTRF ADPr-conjugated peptide displacement) was 1.7 µM. The Ki (SARS-CoV-2 NSP3 Mac1 [2]; Ki*** [µM]) was 1.5 µM and the “HIT*” value (SARS-CoV-2 NSP3 Mac1 [4]) was “Y”.

In the case of `O=C(c1cn[nH]c(=O)c1)N1CCC(CF)(C(=O)O)C1` (stereo not shown) [R8407, REAL250001448407], the “DSF max dTma” value (SARS-CoV-2 NSP3 Mac1 [6]) is reported as 0 degC.

`Nc1ncnc2c1ncn2Cc1ccc(Cl)cn1` [Z0078, ZINC000559260078] was tested, and the “DSF max dTma” value (SARS-CoV-2 NSP3 Mac1 [6]) was 0.98 degC.

For `Nc1ncnc2c1ncn2Cc1cccc(C(F)(F)F)c1` [Z0893, ZINC000110510893], the “DSF max dTma” value (SARS-CoV-2 NSP3 Mac1 [6]) was 0.5 degC.

With `CC(CSc1nnc2[nH]cnn12)c1ccccc1` (stereo not shown) [Z3280, ZINC000920153280] the “DSF max dTma” value (SARS-CoV-2 NSP3 Mac1 [6]) was 0 degC.
